The values that follow are results of earlier work, collected in patent US9073926B2, “Heterocyclic compounds containing a pyrrolopyridine or benzimidazole core” (Boehringer Ingelheim International GmbH, priority 2009, dated 2015).

The test system of the data set is NHE1. The conditions noted are these: Cuello et al., Mol Pharmacol 71:799-806, 2007; cited from earlier work.

`Cc1ccc(-c2c(C(=O)CF)n(CCCO)c3ncnc(N)c23)cc1` [fmk]: the “basal NHE1 activity” value was “without affecting basal activity”; the “phosphorylation of NHE1 and phenylephrine-induced enhanced NHE1 activity” value is on record as “inhibit phosphorylation of NHE1”.
